ChEMBL document CHEMBL1287766, “Discovery of N-benzyl-N'-(4-pipyridinyl)urea CCR5 antagonists as anti-HIV-1 agents (II): modification of the acyl portion” (Bioorg Med Chem Lett, 2010)

Assays:
[1] = Half life in Sprague-Dawley rat at 1 mg/kg; assay type: ADME, organism-based; parameters: dose 1 mg/kg; details: in vivo
[2] = Clearance in Sprague-Dawley rat at 1 mg/kg; assay type: ADME, organism-based; parameters: dose 1 mg/kg; details: in vivo
HOS = assay: Cytotoxicity against human HOS cells up to 1 uM; assay type: cell-based
[3] = Oral bioavailability in Sprague-Dawley rat at 1 mg/kg; assay type: ADME, organism-based; details: in vivo
[4] = system: Human immunodeficiency virus 1; assay: Antiviral activity against HIV1 BaL in human PBL cells; assay type: functional, organism-based; details: Human immunodeficiency virus 1, BaL
[5] = system: Human immunodeficiency virus 1; assay: Antiviral activity against HIV1 BaL in human HOS cells; assay type: functional, organism-based; details: Human immunodeficiency virus 1, BaL
PBL = assay: Cytotoxicity against human PBL cells up to 1 uM; assay type: cell-based
[6] = Apparent permeability across MDCK cells at pH 7.05; assay type: ADME, cell-based, Canis lupus familiaris; details: dog
Cytochrome P450 3A4 = Cytochrome P450 3A4 (Homo sapiens, UniProt P08684); assay: Inhibition of CYP3A4; assay type: ADME
Sequence of Cytochrome P450 3A4 (P08684 whole entry): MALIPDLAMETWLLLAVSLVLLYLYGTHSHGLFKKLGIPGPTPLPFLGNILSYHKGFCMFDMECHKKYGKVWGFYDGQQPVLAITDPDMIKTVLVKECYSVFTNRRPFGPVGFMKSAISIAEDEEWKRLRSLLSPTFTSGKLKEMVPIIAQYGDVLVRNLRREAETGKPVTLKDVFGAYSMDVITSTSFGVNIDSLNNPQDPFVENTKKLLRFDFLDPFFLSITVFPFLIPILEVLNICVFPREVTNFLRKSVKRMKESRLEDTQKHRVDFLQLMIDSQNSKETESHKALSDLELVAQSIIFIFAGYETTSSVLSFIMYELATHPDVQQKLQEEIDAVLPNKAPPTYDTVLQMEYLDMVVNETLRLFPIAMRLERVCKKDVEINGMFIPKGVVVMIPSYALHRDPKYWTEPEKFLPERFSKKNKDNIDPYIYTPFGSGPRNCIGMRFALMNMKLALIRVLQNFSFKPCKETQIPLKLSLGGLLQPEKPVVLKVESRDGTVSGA

SMILES | half-life [1] [min] | clearance [2] [mL/min/kg] | Activity (HOS) | bioavailability [3] [%] | IC50 [4] [nM] | IC50 [5] [nM] | Activity (PBL) | Papp [6] [×10⁻⁶ cm/s] | inhibition (INH) (Cytochrome P450 3A4)
N#Cc1ccc(CNC(=O)N(c2cccc(F)c2)C2CCN(CCC3(c4cccc(F)c4)CCN(C(=O)C4CCOCC4)CC3)CC2)cc1 | 156 | 25 | Non-toxic | 11 | 22 | 17 | Non-toxic |  | 
N#Cc1ccc(CNC(=O)N(c2cccc(F)c2)C2CCN(CCC3(c4cccc(F)c4)CCN(C(=O)c4cc(S(=O)(=O)N5CCCC5)c(F)cc4F)CC3)CC2)cc1 |  | 29 | Non-toxic | 10 | 0.6 | 0.9 | Non-toxic |  | 
N#Cc1ccc(CNC(=O)N(c2cccc(F)c2)C2CCN(CCC3(c4cccc(F)c4)CCN(C(=O)c4c(Cl)ccc(S(N)(=O)=O)c4Cl)CC3)CC2)cc1 |  | 16 | Non-toxic |  | 2.8 | 5.7 | Non-toxic | < 0.3 | 
N#Cc1ccc(CNC(=O)N(c2cccc(F)c2)C2CCN(CCC3(c4cccc(F)c4)CCN(C(=O)c4cn[nH]c4C(F)(F)F)CC3)CC2)cc1 | 432 | 13 | Non-toxic | 3 |  | 8.2 | Non-toxic |  | Active
N#Cc1ccc(CNC(=O)N(c2cccc(F)c2)C2CCN(CCC3(c4cccc(F)c4)CCN(C(=O)c4c(Cl)cncc4Cl)CC3)CC2)cc1 | 294 | 24 | Non-toxic | 50 | 4.8 | 2.7 | Non-toxic |  | Active
N#Cc1ccc(CNC(=O)N(c2cccc(F)c2)C2CCN(CCC3(c4cccc(F)c4)CCN(C(=O)c4cc(S(N)(=O)=O)c(F)cc4Cl)CC3)CC2)cc1 |  | 9.7 | Non-toxic |  | 0.9 | 6.8 | Non-toxic | < 0.3 | 
CC(C)(CO)C(=O)N1CCC(CCN2CCC(N(C(=O)NCc3ccc(C#N)cc3)c3cccc(F)c3)CC2)(c2cccc(F)c2)CC1 | 156 | 22 | Non-toxic | 63 | 20 | 19 | Non-toxic |  | 
CC(C)(C)NS(=O)(=O)c1ccc(Cl)c(C(=O)N2CCC(CCN3CCC(N(C(=O)NCc4ccc(C#N)cc4)c4cccc(F)c4)CC3)(c3cccc(F)c3)CC2)c1Cl |  | 9 | Non-toxic | 10 | 0.8 | 3 | Non-toxic |  | 
CC(C)(C#N)C(=O)N1CCC(CCN2CCC(N(C(=O)NCc3ccc(C#N)cc3)c3cccc(F)c3)CC2)(c2cccc(F)c2)CC1 | 258 | 12 | Non-toxic | 28 | 49 | 6.4 | Non-toxic |  | 
N#Cc1ccc(CNC(=O)N(c2cccc(F)c2)C2CCN(CCC3(c4cccc(F)c4)CCN(C(=O)c4cccnc4F)CC3)CC2)cc1 | 204 | 22.5 | Non-toxic | 60 | 6.1 | 6.4 | Non-toxic |  | Active
N#Cc1ccc(CNC(=O)N(c2cccc(F)c2)C2CCN(CCC3(c4cccc(F)c4)CCN(C(=O)c4cc(S(=O)(=O)N5CCCC5)c(F)cc4Cl)CC3)CC2)cc1 |  | 9.5 | Non-toxic | 9 | 0.6 | 1.5 | Non-toxic |  | 
N#Cc1ccc(CNC(=O)N(c2cccc(F)c2)C2CCN(CCC3(c4cccc(F)c4)CCN(C(=O)c4cc(S(=O)(=O)N5CC[C@H](O)C5)c(F)cc4Cl)CC3)CC2)cc1 |  | 24 | Non-toxic | 8 | 0.5 | 1.5 | Non-toxic |  | 
CC(CO)(CO)C(=O)N1CCC(CCN2CCC(N(C(=O)NCc3ccc(C#N)cc3)c3cccc(F)c3)CC2)(c2cccc(F)c2)CC1 | 264 | 26 | Non-toxic | 7 |  | 22 | Non-toxic |  | 
N#Cc1ccc(CNC(=O)N(c2cccc(F)c2)C2CCN(CCC3(c4cccc(F)c4)CCN(C(=O)c4c(F)ccc(S(N)(=O)=O)c4F)CC3)CC2)cc1 |  | 25 | Non-toxic |  | 2 | 6.6 | Non-toxic |  | 
Cn1cc(Cl)c(C(=O)N2CCC(CCN3CCC(N(C(=O)NCc4ccc(C#N)cc4)c4cccc(F)c4)CC3)(c3cccc(F)c3)CC2)n1 | 156 | 25 | Non-toxic | 11 | 22 | 17 | Non-toxic |  | Active
CC(C)(C)C(=O)N1CCC(CCN2CCC(N(C(=O)NCc3ccc(C#N)cc3)c3cccc(F)c3)CC2)(c2cccc(F)c2)CC1 | 144 | 10 | Non-toxic | 11 | 5.3 | 11 | Non-toxic |  | 
N#Cc1ccc(CNC(=O)N(c2cccc(F)c2)C2CCN(CCC3(c4cccc(F)c4)CCN(C(=O)c4nsnc4O)CC3)CC2)cc1 |  | 124 | Non-toxic | 0 | 41 | 1.1 | Non-toxic |  | Active
N#Cc1ccc(CNC(=O)N(c2cccc(F)c2)C2CCN(CCC3(c4cccc(F)c4)CCN(C(=O)c4ccnc(Cl)c4)CC3)CC2)cc1 | 348 | 14.6 | Non-toxic | 64 | 13 | 19 | Non-toxic |  | Active
N#Cc1ccc(CNC(=O)N(c2cccc(F)c2)C2CCN(CCC3(c4cccc(F)c4)CCN(C(=O)c4cc(S(=O)(=O)N5CC[C@H](O)C5)c(F)cc4F)CC3)CC2)cc1 |  | 43 | Non-toxic | 0 |  | 1.3 | Non-toxic |  | 
N#Cc1ccc(CNC(=O)N(c2cccc(F)c2)C2CCN(CCC3(c4cccc(F)c4)CCN(C(=O)c4cc(S(N)(=O)=O)c(F)cc4F)CC3)CC2)cc1 |  | 31 | Non-toxic |  | 5.2 | 4 | Non-toxic | < 0.3 | 
